From patent EP0998923A1, “Use of 5-HT7 receptor agonists for the treatment or prophylaxis of ischemias” (BASF AKTIENGESELLSCHAFT, priority 1998, dated 2000) come the findings set out here.

One data set deals with male Long Evans rats. Briefly: Permanent distal middle cerebral artery (MCA) occlusion, rat model of experimental stroke. Type of data set: in vivo. Here is the method: The experiments were carried out in male Long Evans rats. Under halothane anesthesia supplemented with nitrous oxide, the right middle cerebral artery (MCA) was dissected and permanently ligated at a distal position as described in the literature. The outcome of the experiments was quantified by determining the resulting infarct volume 22 hours after MCA occlusion.
In the first series of experiments, animals were treated with 2 mg/kg R(+)-8-OH-DPAT i.v. followed by a maintenance infusion of 1 mg/kg/h R(+)-8-OH-DPAT i.v. Drug administration was started 90 min after MCA occlusion. In the second series of experiments, rats were pretreated with 2.14 mg/kg/h WAY 100,635 i.p., started 2 hours before MCA occlusion; administration of R(+)-8-OH-DPAT was subsequently performed as in the first study. Accordingly, in the second series a total dose of 2.14 mg/kg/h of WAY 100,635 had been administered for 3.5 h (total dosage = 7.49 mg/kg) before treatment with the agonist R(+)-8-OH-DPAT commenced. The blockade of 5-HT1A receptors under these conditions was confirmed by the complete lack of stereotyped behavior observed in animals treated with R(+)-8-OH-DPAT […]. Under the conditions of the second series, any pharmacological effect of R(+)-8-OH-DPAT treatment are mediated by the 5-HT7 receptor.
The experiments were carried out under the same conditions as described in Example 1,
A preferred 5-HT7 receptor agonist is 1-[3-[4-[3-(trifluoromethyl)-phenyl]-piperazine-1-yl]-propyl]-3-hydroxy-1H-pyridine-2-on (= Compound A), a compound which can be prepared as discribed in example 3. The 5-HT7 agonist Compound A was administered as an intravenous bolus followed by a maintenance infusion.

The target of the next data set is 5-HT7 receptor (Homo sapiens, UniProt P34969). Briefly: Affinity to the 5-HT7 receptor. In kind it is binding. The source says:
(§1) The affinity of a compound to a human 5-HT receptor can be measured and calculated easily by methods known to a skilled person.

The next data set concerns the target T1, 5-HT1A receptor (Homo sapiens, UniProt P08908).
T1 sequence (P08908 1-422): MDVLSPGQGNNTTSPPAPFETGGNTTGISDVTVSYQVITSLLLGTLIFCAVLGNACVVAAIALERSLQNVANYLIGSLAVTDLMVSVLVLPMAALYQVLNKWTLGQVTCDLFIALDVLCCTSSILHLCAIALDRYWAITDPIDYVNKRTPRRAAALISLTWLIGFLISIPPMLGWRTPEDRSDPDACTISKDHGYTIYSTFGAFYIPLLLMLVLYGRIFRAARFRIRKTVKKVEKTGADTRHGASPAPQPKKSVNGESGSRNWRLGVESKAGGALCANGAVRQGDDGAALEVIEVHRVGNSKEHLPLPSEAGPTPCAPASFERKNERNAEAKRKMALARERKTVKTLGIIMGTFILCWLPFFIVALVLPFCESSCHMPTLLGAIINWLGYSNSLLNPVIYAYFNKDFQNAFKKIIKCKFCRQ
Briefly: Affinity to the 5-HT1A receptor. Type of data set: binding.
Excerpt: as §1

Chain of 5-HT7 receptor (P34969 whole entry): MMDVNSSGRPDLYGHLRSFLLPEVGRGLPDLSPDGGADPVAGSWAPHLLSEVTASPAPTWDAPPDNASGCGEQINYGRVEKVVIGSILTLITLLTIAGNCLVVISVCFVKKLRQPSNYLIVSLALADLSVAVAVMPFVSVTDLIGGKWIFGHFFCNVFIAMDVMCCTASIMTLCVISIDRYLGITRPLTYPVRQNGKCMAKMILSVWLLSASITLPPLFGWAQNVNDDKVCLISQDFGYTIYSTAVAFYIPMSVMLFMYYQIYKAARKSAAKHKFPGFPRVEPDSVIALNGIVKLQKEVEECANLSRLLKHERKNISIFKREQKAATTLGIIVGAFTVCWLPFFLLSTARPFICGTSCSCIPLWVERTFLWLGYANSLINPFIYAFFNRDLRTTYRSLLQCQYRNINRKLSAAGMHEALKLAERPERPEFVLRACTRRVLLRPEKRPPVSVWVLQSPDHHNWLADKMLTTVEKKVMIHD

Turning to `O=c1c(O)cccn1CCCN1CCN(c2cccc(C(F)(F)F)c2)CC1` [Compound A, 1-[3-[4-[3-(trifluoromethyl)-phenyl]-piperazine-1-yl]-propyl]-3-hydroxy-1H-pyridine-2-on], the Stereotyped behavior result with male Long Evans rats (Example 2: dose 4+2 mg/kg + mg/kg/h i.v.) is listed as “No”. Moreover, the “Infarct volume, % of control, mean ± SD, (n) Treatment” value in the data set with male Long Evans rats (Example 2: dose 4+2 mg/kg + mg/kg/h i.v. (bolus + maintenance infusion), same conditions as Example 1) is reported as 78±23(10) % of control. Moreover, the Ki at 5-HT7 receptor came out at 0.007 µM; on 5-HT1A receptor it was 0.13 µM. Besides, on 5-HT7 receptor (5-HT7 over 5-HT1A (ratio of Ki values)), the “selectivity for the 5-HT7 receptor” value was “approximately 19 fold”.
`CCCN(CCC)C1CCc2cccc(O)c2C1` (stereo not drawn) [R(+)-8-OH-DPAT, 8-hydroxy-di-n-propylamino tetralin]: the “Infarct volume, % of control, mean ± SD, (n) Treatment” value in the data set with male Long Evans rats (Example 1: 2 mg/kg R(+)-8-OH-DPAT i.v. + 1 mg/kg/h i.v. infusion, started 90 min after MCA occlusion, combination: pretreated with 2.14 mg/kg/h WAY 100,635 i.p. from 2 hours before occlusion, infarct volume 22 hours after occlusion) is listed as 72±32(12) % of control. For the same compound, in the data set on male Long Evans rats (Example 1: same dosing as for infarct volume, with or without WAY 100,635 pretreatment), the Stereotyped behavior entry was “Yes”. Besides, the “reduction of infarct volume” value in the data set on male Long Evans rats (Example 1: versus placebo, 22 hours after MCA occlusion) was 28%.
